Results: ChEMBL document CHEMBL4840372, “Talarodrides A-F, Nonadrides from the Antarctic Sponge-Derived Fungus Talaromyces sp. HDN1820200” (J Nat Prod, 2021)
≈ marks a conversion by molar mass, not a printed value.

Tests used:
Bacillus subtilis = experiment: Antimicrobial activity against Bacillus subtilis assessed as reduction in bacterial growth by agar dilution method; format: functional
Escherichia coli = experiment: Antimicrobial activity against Escherichia coli assessed as reduction in bacterial growth by agar dilution method; format: functional
Mycolicibacterium phlei = experiment: Antimicrobial activity against Mycobacterium phlei assessed as reduction in bacterial growth by agar dilution method; format: functional
Vibrio parahaemolyticus = experiment: Antimicrobial activity against Vibrio parahaemolyticus assessed as reduction in bacterial growth by agar dilution method; format: functional
Proteus mirabilis = experiment: Antimicrobial activity against Proteus mirabilis assessed as reduction in bacterial growth by agar dilution method; format: functional
Staphylococcus aureus = experiment: Antimicrobial activity against methicillin-resistant Staphylococcus aureus assessed as reduction in bacterial growth by agar dilution method; format: functional
Acinetobacter baumannii = experiment: Antimicrobial activity against Acinetobacter baumannii assessed as reduction in bacterial growth by agar dilution method; format: functional
Bacillus cereus = experiment: Antimicrobial activity against Bacillus cereus assessed as reduction in bacterial growth by agar dilution method; format: functional
Edwardsiella tarda = experiment: Antimicrobial activity against Edwardsiella tarda assessed as reduction in bacterial growth by agar dilution method; format: functional
Staphylococcus = experiment: Antimicrobial activity against methicillin-resistant coagulase-negative Staphylococci assessed as reduction in bacterial growth by agar dilution method; format: functional
HeLa = experiment: Cytotoxicity against human HeLa cells assessed as reduction in cell viability by SRB assay; format: functional, cell-based
[1] = Cytotoxicity against human HO-8910 cells assessed as reduction in cell viability by SRB assay; format: functional, cell-based
NCI-H446 = experiment: Cytotoxicity against human NCI-H446 cells assessed as reduction in cell viability by SRB assay; format: functional, cell-based
U-87 MG = experiment: Cytotoxicity against human U87 cells assessed as reduction in cell viability by SRB assay; format: functional, cell-based, U-87MG ATCC
MGC-803 = experiment: Cytotoxicity against human MGC-803 cells assessed as reduction in cell viability by SRB assay; format: functional, cell-based
A549 = experiment: Cytotoxicity against human A549 cells assessed as reduction in cell viability by SRB assay; format: functional, cell-based
MDA-MB-231 = experiment: Cytotoxicity against human MDA-MB-231 cells assessed as reduction in cell viability by SRB assay; format: functional, cell-based
SH-SY5Y = experiment: Cytotoxicity against human SH-SY5Y cells assessed as reduction in cell viability by SRB assay; format: functional, cell-based
Bel-7402 = experiment: Cytotoxicity against human Bel-7402 cells assessed as reduction in cell viability by SRB assay; format: functional, cell-based
PC-3 = experiment: Cytotoxicity against human PC-3 cells assessed as reduction in cell viability by SRB assay; format: functional, cell-based
K562 = experiment: Cytotoxicity against human K562 cells assessed as reduction in cell viability by MTT assay; format: functional, cell-based
L02 = experiment: Cytotoxicity against human L02 cells assessed as reduction in cell viability by SRB assay; format: cell-based
ASPC1 = experiment: Cytotoxicity against human ASPC1 cells assessed as reduction in cell viability by SRB assay; format: functional, cell-based
HCT-116 = experiment: Cytotoxicity against human HCT-116 cells assessed as reduction in cell viability by SRB assay; format: functional, cell-based
GES1 = experiment: Cytotoxicity against human GES1 cells assessed as reduction in cell viability by SRB assay; format: functional, cell-based
MCF7 = experiment: Cytotoxicity against human MCF7 cells assessed as reduction in cell viability by SRB assay; format: functional, cell-based

| SMILES | MIC (Bacillus subtilis) | MIC (Escherichia coli) | MIC (Mycolicibacterium phlei) | MIC (Vibrio parahaemolyticus) | MIC (Proteus mirabilis) | MIC (Staphylococcus aureus) | MIC (Acinetobacter baumannii) | MIC (Bacillus cereus) | MIC (Edwardsiella tarda) | MIC (Staphylococcus) | IC50 (HeLa) | IC50 [1] | IC50 (NCI-H446) | IC50 (U-87 MG) | IC50 (MGC-803) | IC50 (A549) | IC50 (MDA-MB-231) | IC50 (SH-SY5Y) | IC50 (Bel-7402) | IC50 (PC-3) | further results |
| --- | --- | --- | --- | --- | --- | --- | --- | --- | --- | --- | --- | --- | --- | --- | --- | --- | --- | --- | --- | --- | --- |
| O=C(O)c1cn(C2CC2)c2cc(N3CCNCC3)c(F)cc2c1=O [CIPROFLOXACIN] | 0.195 µM (≈ 0.0646 µg/mL) | 25 µM (≈ 8.28 µg/mL) | 0.195 µM (≈ 0.0646 µg/mL) | 0.39 µM (≈ 0.129 µg/mL) | 0.098 µM (≈ 0.0325 µg/mL) | 25 µM (≈ 8.28 µg/mL) | 25 µM (≈ 8.28 µg/mL) | 0.78 µM (≈ 0.258 µg/mL) | 0.0245 µM (≈ 0.00812 µg/mL) | 25 µM (≈ 8.28 µg/mL) |  |  |  |  |  |  |  |  |  |  |  |
| CCCCCCC1C([C@@H](O)C(=O)[C@H](O)CCC)C=C2C3(O)OC(=O)[C@]2(C)CC2=C(C(=O)OC2=O)C13 (stereo partly specified) | > 50 µM | > 50 µM | > 50 µM | > 50 µM | 12.5 µM (≈ 6.13 µg/mL) | > 50 µM | > 50 µM | > 50 µM | > 50 µM | > 50 µM | > 30 µM | > 30 µM | > 30 µM | > 30 µM | > 30 µM | > 30 µM | > 30 µM | > 30 µM | > 30 µM | > 30 µM | IC50 (K562): > 30 µM; IC50 (L02): > 30 µM; IC50 (ASPC1): > 30 µM; IC50 (HCT-116): > 30 µM; IC50 (GES1): > 30 µM; IC50 (MCF7): > 30 µM |
| CCCCCCC1C([C@@H](O)C(=O)[C@H](O)CCC)C=C2C3(OC)OC(=O)[C@]2(C)CC2=C(C(=O)OC2=O)C13 (stereo partly specified) | > 50 µM | > 50 µM | > 50 µM | 6.13 µM (≈ 3.09 µg/mL) | 3.13 µM (≈ 1.58 µg/mL) | > 50 µM | > 50 µM | > 50 µM | > 50 µM | > 50 µM | > 30 µM | > 30 µM | > 30 µM | > 30 µM | > 30 µM | > 30 µM | > 30 µM | > 30 µM | > 30 µM | > 30 µM | IC50 (K562): > 30 µM; IC50 (L02): > 30 µM; IC50 (ASPC1): > 30 µM; IC50 (HCT-116): > 30 µM; IC50 (GES1): > 30 µM; IC50 (MCF7): > 30 µM |
| CCCC[C@H]1CC2C([C@@H](O)C(=O)[C@H](O)CCC)C=C3C4(OC(=O)[C@]3(C)CC3=C(C(=O)OC3=O)C24)O1 (stereo partly specified) | > 50 µM | > 50 µM | > 50 µM | > 50 µM | > 50 µM | > 50 µM | > 50 µM | > 50 µM | > 50 µM | > 50 µM | > 30 µM | > 30 µM | > 30 µM | > 30 µM | > 30 µM | > 30 µM | > 30 µM | > 30 µM | > 30 µM | > 30 µM | IC50 (K562): > 30 µM; IC50 (L02): > 30 µM; IC50 (ASPC1): > 30 µM; IC50 (HCT-116): > 30 µM; IC50 (GES1): > 30 µM; IC50 (MCF7): > 30 µM |
| CCCCCCC1C2C(=O)C(=CC1[C@@H](O)C(=O)[C@H](O)CCC)[C@](C)(C(=O)OC)CC1=C2C(=O)OC1=O (stereo partly specified) | > 50 µM | > 50 µM | > 50 µM | > 50 µM | > 50 µM | > 50 µM | > 50 µM | > 50 µM | > 50 µM | > 50 µM | > 30 µM | > 30 µM | > 30 µM | > 30 µM | > 30 µM | > 30 µM | > 30 µM | > 30 µM | > 30 µM | > 30 µM | IC50 (K562): > 30 µM; IC50 (L02): > 30 µM; IC50 (ASPC1): > 30 µM; IC50 (HCT-116): > 30 µM; IC50 (GES1): > 30 µM; IC50 (MCF7): > 30 µM |
| CCCCCCC1C([C@@H](O)C(=O)[C@H](C)CCC)C=C2C3(OC)OC(=O)[C@]2(C)CC2=C(C(=O)OC2=O)C13 (stereo partly specified) | > 50 µM | > 50 µM | > 50 µM | > 50 µM | > 50 µM | > 50 µM | > 50 µM | > 50 µM | > 50 µM | > 50 µM | > 30 µM | > 30 µM | > 30 µM | > 30 µM | > 30 µM | > 30 µM | > 30 µM | > 30 µM | > 30 µM | > 30 µM | IC50 (K562): > 30 µM; IC50 (L02): > 30 µM; IC50 (ASPC1): > 30 µM; IC50 (HCT-116): > 30 µM; IC50 (GES1): > 30 µM; IC50 (MCF7): > 30 µM |
| CCCCCCC1C2C(=O)C(=CC1[C@@H](O)C(=O)[C@H](O)CCC)[C@@H](C)CC1=C2C(=O)OC1=O (stereo partly specified) | > 50 µM | > 50 µM | > 50 µM | > 50 µM | > 50 µM | > 50 µM | > 50 µM | > 50 µM | > 50 µM | > 50 µM | > 30 µM | > 30 µM | > 30 µM | > 30 µM | > 30 µM | > 30 µM | > 30 µM | > 30 µM | > 30 µM | > 30 µM | IC50 (K562): > 30 µM; IC50 (L02): > 30 µM; IC50 (ASPC1): > 30 µM; IC50 (HCT-116): > 30 µM; IC50 (GES1): > 30 µM; IC50 (MCF7): > 30 µM |
